The results in this text go back to US20250205211A1, “TYK2 INHIBITORS AND USES THEREOF” (Alumis Inc., priority 2022, published 2025).

This data set is described as follows: FIH study: single doses and seven-day courses of Compound A in healthy participants (safety, pharmacokinetics). The class given is in vivo, human.
Where [1] appears, read: single dose 100 mg, FIH study, mean.

A word on the AUC: it is concentration integrated over time. As usually defined, the Cmax is the maximum level reached in the sampled fluid or tissue. With `[2H]C([2H])([2H])CC(=O)c1cnc(NC(=O)C2CC2)cc1Nc1cccc(-c2ncn(C([2H])([2H])[2H])n2)c1OC` [Compound A, N-(4-((2-Methoxy-3-(1-(methyl-d3)-1H-1,2,4-triazol-3-yl)phenyl)amino)-5-(propanoyl-3,3,3-d3)pyridin-2-yl)cyclopropanecarboxamide], under “human, in vivo, oral, seven-day course, 40 mg q12h, read-out: mean AUC from time 0 to 12 hours at steady state [AUCo-12,ss]”, the AUC turned out to be 3620 ng·h/mL. This molecule gave a Cmax (human, in vivo, oral, single dose 100 mg, FIH study, highest individual value) of 1160 ng/mL. In addition, where the note is “human, in vivo, oral, single dose 100 mg, FIH study, highest individual value, read-out: AUC0-inf highest value”, the AUC(0-inf) is 13700 ng·h/mL. Moreover, under “seven-day course, 40 mg q12h”, the “mean Cmax at steady state [Cmax,ss]” value is 433 ng/mL. Further, the “tolerability of seven-day courses” value (seven-day courses of up to 40 mg q12h) is recorded as “well tolerated”. Also, under setting [1], the AUC0-inf averaged was 11,286 ng*h/mL and the Cmax averaged was 949 ng/mL. Moreover, the “safety of single doses” value (single doses of up to 100 mg) is listed as “without clinically significant safety concerns”.
